In ChEMBL document CHEMBL1158796, “Hectochlorin and morpholine derivatives from the Thai sea hare, Bursatella leachii” (2005):

Columns and labels:
Type in all cases: functional
Details in all cases: read-out: ED50 (the source's name)
[1] = tested on: KB; experiment: Cytotoxicity against human KB cells by SRB assay
[2] = tested on: NCI-H187; experiment: Cytotoxicity against human NCI-H187 cells by SRB assay
[3] = Cytotoxicity against human BC cells by SRB assay

| SMILES | EC50 [1] | EC50 [2] | EC50 [3] |
| --- | --- | --- | --- |
| CC(=O)O[C@@H]1c2nc(cs2)C(=O)O[C@@H](CCCC(C)(Cl)Cl)[C@H](C)C(=O)O[C@@H](C(C)(C)O)c2nc(cs2)C(=O)OC1(C)C [HECTOCHLORIN] | 860 nM | 1200 nM | – |
| C[C@@H]1C(=O)O[C@@H](C(C)(C)O)c2nc(cs2)C(=O)OC(C)(C)[C@H](O)c2nc(cs2)C(=O)O[C@H]1CCCC(C)(Cl)Cl [DEACETYLHECTOCHLORIN] | 310 nM | 320 nM | 1030 nM |
